Columns and labels:
[1] = molecular target: T1, Bcl-2-related protein A1 (Homo sapiens, UniProt Q16548); experiment: Inhibition of N-terminal His6-tagged recombinant Bfl-1 (1 to 151 residues)(unknown origin) extracted from Escherichia coli BL21-Gold (DE3) using HyLite Fluor 647-labeled Bim peptide as substrate incubated for 120 mins by TR-FRET assay
T1 sequence (Q16548 whole entry): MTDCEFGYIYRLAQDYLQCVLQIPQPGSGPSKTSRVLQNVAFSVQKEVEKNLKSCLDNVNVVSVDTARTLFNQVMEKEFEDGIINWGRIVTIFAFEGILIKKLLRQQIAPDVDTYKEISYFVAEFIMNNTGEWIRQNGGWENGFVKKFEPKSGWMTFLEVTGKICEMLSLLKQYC

[2] = molecular target: T1, Bcl-2-related protein A1; experiment: Inhibition of Bfl-1 in human SU-DHL-1 cells assessed as caspase-3/7 activation measured after 6 hrs by UPLC-MRM MS analysis; format: cell-based
[3] = molecular target: Induced myeloid leukemia cell differentiation protein Mcl-1 (Homo sapiens, UniProt Q07820); experiment: Inhibition of Mcl-1 (unknown origin)
Induced myeloid leukemia cell differentiation protein Mcl-1, sequence (Q07820 whole entry): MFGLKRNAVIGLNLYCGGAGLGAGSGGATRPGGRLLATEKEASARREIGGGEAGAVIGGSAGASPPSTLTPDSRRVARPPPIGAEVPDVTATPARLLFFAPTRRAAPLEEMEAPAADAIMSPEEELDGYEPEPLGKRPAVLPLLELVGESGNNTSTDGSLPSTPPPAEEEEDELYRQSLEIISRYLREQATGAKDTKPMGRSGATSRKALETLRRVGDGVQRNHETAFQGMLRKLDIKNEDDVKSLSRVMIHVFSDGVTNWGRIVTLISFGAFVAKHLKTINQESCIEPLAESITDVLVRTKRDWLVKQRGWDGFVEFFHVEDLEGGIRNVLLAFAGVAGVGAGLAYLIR

SMILES	IC50 [1]	EC50 [2]	IC50 [3]
C=CC(=O)N(c1ccc(O[C@@H]2CC[C@@H](N)C2)cc1)[C@@H](C)c1ccc(C(F)(F)F)c(C#N)c1	22 nM	0.37 µM	> 100 µM
C=CC(=O)N(Cc1ccc(Cl)cc1)c1ccc(O[C@@H]2CC[C@@H](N(C)C)C2)cc1 (racemic)	440 nM		
C=CC(=O)N(Cc1ccc(Cl)cc1)c1ccc(O[C@@H]2CC[C@@H](NC(=O)NC)C2)cc1 (racemic)	360 nM		
C=CC(=O)N(Cc1ccc(Cl)cc1)c1ccc(O[C@@H]2CC[C@@H](NC(C)=O)C2)cc1 (racemic)	460 nM		
C=CC(=O)N(Cc1ccc(C#N)c(Cl)c1)c1ccc(O[C@@H]2CC[C@@H](N)C2)cc1 (racemic)	550 nM		
C=CC(=O)N(Cc1ccc(Cl)cc1)c1ccc(O[C@@H]2CC[C@@H](NC)C2)cc1 (racemic)	380 nM		
C=CC(=O)N(Cc1ccc(Cl)cc1)c1ccc(OC)cc1	9800 nM		
C=CC(=O)N(Cc1ccc(Cl)cc1)c1ccc(F)cc1	5100 nM		
C=CC(=O)N(Cc1ccc(Cl)cc1)c1ccc(O[C@H]2CC[C@@H](N)C2)cc1 (racemic)	42000 nM		

The remaining lines, values ahead:

IC50 [1]	EC50 [2]	IC50 [3]	SMILES
29000 nM			C=CC(=O)N(Cc1ccc(OC)cc1)c1ccccc1Cl
22000 nM			C=CC(=O)N(Cc1ccc(Cl)cc1)c1ccc(O[C@@H]2CC[C@@H](N(C)C(C)=O)C2)cc1 (racemic)
1600 nM	6.9 µM		C=CC(=O)N(c1ccc(O[C@@H]2CC[C@@H](N)C2)cc1)[C@H](C)c1ccc(C(F)(F)F)c(C#N)c1
450 nM	7.4 µM		C=CC(=O)N(Cc1ccc(Cl)cc1)c1ccc(O[C@@H]2CC[C@@H](N)C2)cc1 (racemic)
> 100000 nM			C=CC(=O)N(Cc1ccc(OC)cc1)c1ccccc1
5100 nM			C=CC(=O)N(Cc1ccc(Cl)cc1)c1ccc(O[C@H]2CC[C@H](N)C2)cc1
720 nM	2.6 µM		C=CC(=O)N(Cc1ccc(C(F)(F)F)cc1)c1ccc(O[C@@H]2CC[C@@H](N)C2)cc1 (racemic)
300 nM	1.8 µM		C=CC(=O)N(Cc1ccc(C(F)(F)F)c(C#N)c1)c1ccc(O[C@@H]2CC[C@@H](N)C2)cc1 (racemic)
350 nM	3.7 µM		C=CC(=O)N(Cc1ccc(Cl)c(C#N)c1)c1ccc(O[C@@H]2CC[C@@H](N)C2)cc1 (racemic)
19000 nM			C=CC(=O)N(Cc1ccc(OC)cc1)c1ccc(Cl)cc1
340 nM			C=CC(=O)N(Cc1ccc(Cl)cc1)c1ccc(O[C@@H]2CC[C@@H](N)C2)cc1
